From patent publication US6486191B2 (priority 1997, dated 2002)
Values after ≈ are worked out from the molar mass of the structure shown.

What was measured:
[1] = tested on: larvae of the horseradish beetle (Phaedon cochleariae); experiment: Phaedon larvae test; type: in vivo; conditions: cabbage leaves immersed, active substance concentration 0.1 % by weight
Procedure: (§1) Solvent: 7 parts by weight of dimethylformamide
(§2) Emulsifier: 1 part by weight of alkylaryl polyglycol ether
For the preparation of an expedient fonnulation of active substance, 1 part by weight of active substance is mixed with the stated amounts of solvent and emulsifier, and the concentrate is diluted to the desired concentration with water.
Cabbage leaves (Brassica oleracea) are treated by immersion in the formulation of active substance of the desired concentration and infested with larvae of the horseradish beetle (Phaedon cochleariae) as long as the leaves are still moist.
After the desired time, the kill in % is determined. 100% means that all beetle larvae were killed; 0% means that no beetle larvae were killed.

Aspergillus niger = experiment: Material protection test (MIC on malt extract agar); type: cell-based; conditions: 336 h, two weeks at 27° C., 60 to 70% relative humidity, read-out: Minimum inhibitory concentration (MIC value)
Penicillium brevicaule = experiment: as above; type: cell-based; conditions: 336 h, two weeks at 27° C., 60 to 70% relative humidity, read-out: Minimum inhibitory concentration (MIC value)
Chaetomium globosum = experiment: as above; type: cell-based; conditions: 336 h, two weeks at 27° C., 60 to 70% relative humidity, read-out: Minimum inhibitory concentration (MIC value)
[2] = tested on: caterpillars of the diamondback moth (Plutella xylostella); experiment: Plutella test; type: in vivo; conditions: cabbage leaves immersed, active substance concentration 0.1 % by weight
Procedure: as §1, §2
For the preparation of an expedient formulation of active substance, 1 part by weight of active substance is mixed with the stated amounts of solvent and emulsifier, and the concentrate is diluted to the desired concentration with water.
Cabbage leaves (Brassica oleracea) are treated by immersion in the formulation of active substance of the desired concentration and infested with caterpillars of the diamondback moth (Plutella xylostella) as long as the leaves are still moist.
After the desired time, the kill in % is determined. 100% means that all caterpillars were killed; 0% means that no caterpillars were killed.

Structure (SMILES): Cc1ccc([N+](=O)[O-])cc1S(=O)(=O)n1c(C#N)nc2cc3c(cc21)OC(F)(F)C(F)(F)O3 [drawing 68]
- Kill in % after 7 d [1]: 100%

Structure (SMILES): Cc1ccc(S(=O)(=O)n2c(C#N)nc3cc4c(cc32)OC(F)(F)C(F)(F)O4)cc1[N+](=O)[O-] [drawing 67]
- Kill in % after 7 d [1]: 100%

Structure (SMILES): Cc1ccc([N+](=O)[O-])cc1S(=O)(=O)n1c(C#N)nc2cc3c(cc21)OC(F)(F)C(F)(F)O3 [Example 5]
- MIC (Aspergillus niger): 200 µg/mL (≈ 423 µM)
- MIC (Penicillium brevicaule): 100 µg/mL (≈ 212 µM)
- MIC (Chaetomium globosum): 100 µg/mL (≈ 212 µM)

Structure (SMILES): Cc1ccc(S(=O)(=O)n2c(C#N)nc3cc4c(cc32)OC(F)(F)C(F)(F)O4)cc1[N+](=O)[O-] [Example 2]
- MIC (Aspergillus niger): 200 µg/mL (≈ 423 µM)
- MIC (Penicillium brevicaule): 100 µg/mL (≈ 212 µM)
- MIC (Chaetomium globosum): 100 µg/mL (≈ 212 µM)

Structure (SMILES): Cc1ccc(S(=O)(=O)n2c(C#N)nc3cc4c(cc32)OC(F)(F)C(F)(F)O4)cc1[N+](=O)[O-] [drawing 69]
- Kill in % after 7 d [2]: 100%

Structure (SMILES): Cc1ccc([N+](=O)[O-])cc1S(=O)(=O)n1c(C#N)nc2cc3c(cc21)OC(F)(F)C(F)(F)O3 [drawing 70]
- Kill in % after 7 d [2]: 100%
